Laboratory results from ChEMBL document CHEMBL2034967, “Lipophilic amines as potent inhibitors of N-acylethanolamine-hydrolyzing acid amidase” (Bioorg Med Chem, 2012).
Active and inactive are the calls of the source. The calls are words filed in the database; no cut-off is given here.

Legend:
[1] = target: T1, N-acylethanolamine-hydrolyzing acid amidase (Rattus norvegicus) (UniProt Q5KTC7); assay: Inhibition of Wistar/ST rat lung NAAA assessed as residual activity for conversion of [14C]PEA to [14C]palmitic acid at 100 uM after 20 mins relative to control
T1 sequence (whole entry): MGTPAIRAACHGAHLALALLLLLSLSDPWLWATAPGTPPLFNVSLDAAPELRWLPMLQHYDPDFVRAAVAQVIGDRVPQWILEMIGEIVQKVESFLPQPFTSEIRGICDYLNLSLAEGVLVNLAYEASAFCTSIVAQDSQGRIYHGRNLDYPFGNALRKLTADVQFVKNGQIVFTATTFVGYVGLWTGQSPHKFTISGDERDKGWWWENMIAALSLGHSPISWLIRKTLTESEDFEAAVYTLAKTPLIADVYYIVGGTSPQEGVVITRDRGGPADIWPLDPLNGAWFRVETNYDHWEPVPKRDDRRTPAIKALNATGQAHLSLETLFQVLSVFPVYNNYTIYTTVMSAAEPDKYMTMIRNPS

[2] = target: T2, N-acylethanolamine-hydrolyzing acid amidase (Rattus norvegicus, UniProt Q5KTC7); assay: Inhibition of Wistar/ST rat lung NAAA assessed as conversion of [14C]PEA to [14C]palmitic acid after 20 mins
T2 sequence (Q5KTC7 whole entry): T1 sequence (whole entry)

[3] = target: T3, Fatty-acid amide hydrolase 1 (Rattus norvegicus) (UniProt P97612); assay: Inhibition of Wistar/ST rat liver FAAH assessed as conversion of [14C]PEA to [14C]palmitic acid at 100 uM at pH 5 after 20 mins
T3 sequence (whole entry): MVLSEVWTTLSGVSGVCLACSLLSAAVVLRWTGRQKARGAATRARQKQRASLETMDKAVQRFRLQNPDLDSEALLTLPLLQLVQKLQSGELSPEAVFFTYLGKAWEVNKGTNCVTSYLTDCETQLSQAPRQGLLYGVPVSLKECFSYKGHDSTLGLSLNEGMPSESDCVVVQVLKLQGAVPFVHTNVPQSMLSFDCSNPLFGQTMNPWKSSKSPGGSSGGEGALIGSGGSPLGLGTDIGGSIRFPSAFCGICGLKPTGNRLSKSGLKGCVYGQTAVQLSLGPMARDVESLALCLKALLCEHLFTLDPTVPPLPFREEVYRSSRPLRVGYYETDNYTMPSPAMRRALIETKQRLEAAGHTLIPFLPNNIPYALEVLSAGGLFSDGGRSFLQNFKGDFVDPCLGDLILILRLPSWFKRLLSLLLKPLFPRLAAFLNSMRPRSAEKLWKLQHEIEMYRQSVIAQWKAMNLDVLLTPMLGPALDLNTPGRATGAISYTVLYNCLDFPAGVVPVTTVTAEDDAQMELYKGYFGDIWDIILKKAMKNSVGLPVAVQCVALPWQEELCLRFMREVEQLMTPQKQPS

[4] = target: T3, Fatty-acid amide hydrolase 1 (Rattus norvegicus); assay: Inhibition of Wistar/ST rat liver FAAH assessed as conversion of [14C]PEA to [14C]palmitic acid at 100 uM at pH 8.5 after 20 mins
[5] = target: T1, N-acylethanolamine-hydrolyzing acid amidase (Rattus norvegicus); assay: Competitive inhibition of Wistar/ST rat lung NAAA using [14C]PEA as substrate at 10 uM by Line-Weaver Burk plot analysis
[6] = target: T1, N-acylethanolamine-hydrolyzing acid amidase (Rattus norvegicus); assay: Inhibition of Wistar/ST rat lung NAAA assessed as conversion of [14C]PEA to [14C]palmitic acid at 100 uM after 20 mins
[7] = target: T1, N-acylethanolamine-hydrolyzing acid amidase (Rattus norvegicus); assay: Competitive inhibition of Wistar/ST rat lung NAAA using [14C]PEA as substrate at 5 uM by Line-Weaver Burk plot analysis

Row | SMILES | Activity [1] | further results
1 | CCCCCCCCCC(=O)OCCCN | 55% | 
2 | CCCCCCCCCCCCCCCC(=O)OCCN | 50% | 
3 | CCCCCCCCCCCCCCOCCN | 48% | 
4 | CCCCCCCCCCCCOC(=O)CN | 34% | 
5 | CCCCCCCCCCCC(=O)OCCN | 74% | 
6 | CCCCCCCCCCCCOC(=O)CCN | 51% | 
7 | CCCCCCCCCCCCCCCOC(=O)CN | 42% | 
8 | CCCCCCCCCCCCCCCCOCCCN | 84% | 
9 | CCCCCCCCCCCCCOC(=O)CN | 11% | IC50 [2]: 11.8 µM; inhibition [3]: 7%; inhibition [4]: inactive; inhibition [5]: Active
10 | CCCCCCCCCCCCCCOC(=O)CCN | 30% | 
11 | CCCCCCCCCCCCCCOC(=O)CN | 16% | 
12 | CCCCCCCCCCCCCCOCCCN | 71% | 
13 | CCCCCCCCCCCCCCCCOCCN | 91% | 
14 | CCCCCCCCCCCCCCN |  | inhibition [6]: Active
15 | CCCCCCCCCCCCCCCC(=O)NCC(=O)O |  | inhibition [6]: inactive
16 | CCCCCCCCCCCCCC(=O)OCCCN | 46% | 
17 | CCCCCCCCCCCCCOC(=O)CCN | 29% | 
18 | CCCCC/C=C\C/C=C\C/C=C\C/C=C\CCCC(=O)NCC(=O)O |  | inhibition [6]: inactive
19 | CCCCCCCCCCCC(=O)OCCCN | 63% | 
20 | CCCCCCCCCCCCOCCN | 40% | 
21 | CCCCCCCCCCCCCCCN [PENTADECYLAMINE] |  | inhibition [6]: Active; IC50 [2]: 5.7 µM; inhibition [7]: Active; inhibition [3]: 25%; inhibition [4]: inactive
22 | CCCCCCCCCCCCCCCC(=O)OCCCN | 48% | 
23 | CCCCCCCCCCCCOCCCN | 73% | 
24 | CCCCCCCCCCCCCCCC[N+](C)(C)C |  | inhibition [6]: Active
25 | CCCCCCCCCCCCCCCCN |  | inhibition [6]: Active
26 | CCCCCCCCCCCCCCCNC(=O)C1CCCCC1 |  | inhibition [6]: inactive
27 | CCCCCCCCCCCCCC(=O)OCCN | 46% | 
28 | CCCCCCCCCC(=O)OCCN | 89% | 
29 | CCCCCCCCCCCCN |  | inhibition [6]: Active
30 | CCCCCCCCCCCCCCCCOC(=O)CN | 71% | 
